Assay [1] has as its system WM115 melanoma cell line. Briefly: scratch assay for migration, WM115. Particulars: OGM 5 μM, EIPA 10 μM, 20 hours. The assay is classed as cell-based, human. The method, then:
(§1) Cells were grown to confluence and the cells were denuded with a P200 tip. A medium change was done to add fresh medium, remove loose cells and add compounds OGM (5 μM) and EIPA (10 μM). The area of the scratch was observed 20 hours later.
(§2) Since there are numerous parallels are found between neural crest cells and cancer during migration, we examined whether OGM could inhibit the migration of cells in human melanoma cell lines (Oppitz et al., 2007; Schriek et al., 2005; Sinnberg et al., 2018). […] A2058, MeWo and WM115 cells were grown to confluence and a stripe of cells were denuded with a p200 pipette tip “scratch” and rinsed with PBS. Cells were treated with OGM or EIPA, or DMSO and incubated in low serum media. Imaging was done at 30 minutes after “scratch” and then 20 hours afterwards. Areas were then measured and normalized to the initial area.
(§3) Previous studies with the MV3 melanoma cell line have shown that disruption of proton efflux with EIPA inhibition of NHE1 can also reduce melanoma motility (Ludwig et al., 2013; Schneider et al., 2009; Stock et al., 2007, 2005; Stüwe et al., 2007). […] Although the expression of GPR68 and other proton-sensing receptors have been characterized in various skin cancers (Merkel cell carcinoma, dermatofibrosarcoma protuberans, atypical fibroxanthoma, and pleomorphic dermal sarcoma), expression in melanoma cell lines has not investigated (Nassios et al., 2019).

Assay [2] concerns A2058 melanoma cell line. Briefly: scratch assay for migration, A2058. Particulars: OGM 5 μM, EIPA 10 μM, 20 hours. The assay is classed as cell-based, human. The method, then:
as §1, §2, §3

Assay [3] relates to MeWo melanoma cell line. Briefly: scratch assay for migration, MeWo. It is filed as cell-based, human. The note with it: OGM 5 μM, EIPA 10 μM, 20 hours. The method, then:
as §1, §2, §3

Assay [4] concerns the target Lpa1 (Homo sapiens (Human), UniProt Q92633). Briefly: Lpa1 activity of OGM analogs (Table 5). It is filed as cell-based.
The subject of assay [5] is zebrafish embryo. As to the kind of experiment: zebrafish embryo phenotype (pigmentation, morphology). It is filed as in vivo. Particulars: concentrations up to 200× the IC50.
Assay [6] deals with GPR68 (Homo sapiens (Human), UniProt Q15743). Briefly: GPR68 inhibitory activity of OGM analogs (Table 5). It is filed as cell-based. The method, then: GPCR profiling assays were performed by Millipore (St. Louis, MO) using in cells expressing Gα15, a promiscuous G protein that enhances GPCR coupling to downstream Ca2+ signaling pathways.
Chain of GPR68 (Q15743 whole entry, looked up): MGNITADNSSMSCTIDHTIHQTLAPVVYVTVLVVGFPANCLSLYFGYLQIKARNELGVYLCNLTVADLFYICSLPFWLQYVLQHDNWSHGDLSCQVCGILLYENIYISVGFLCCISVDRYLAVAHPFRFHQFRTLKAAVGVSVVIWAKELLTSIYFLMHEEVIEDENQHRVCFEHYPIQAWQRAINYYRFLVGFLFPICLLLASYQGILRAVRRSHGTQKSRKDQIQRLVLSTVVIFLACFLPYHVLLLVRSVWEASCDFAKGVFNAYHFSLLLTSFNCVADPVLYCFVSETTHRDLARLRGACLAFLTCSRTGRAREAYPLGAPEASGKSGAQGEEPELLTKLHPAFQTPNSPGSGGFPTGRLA
Since GPCRs represent >30% of targets for FDA-approved small molecules and are known to modulate cell migration, activity against 158 GPCRs was assessed based on their chemical structures. GPCRs (158) were tested for agonist and antagonist activity at 10 μM. […] Chemical segregation analysis of zebrafish phenotype was conducted to further identify the inhibitory activity responsible for the zebrafish phenotype. […] The identities of the R groups in FIG. 2B are shown below in Table 5.
Chem1-GPR68 reporter cells were treated with 20 uM OM8345 for 2 hours and then rinsed with HBSS. […] The GPR68 inhibitory activity of OGM analogs segregated with the ability of the molecule to induce the phenotype in zebrafish. Neural crest progenitors labeled with In situ hybridization of FoxD3 show normal formation of the progenitor pool.

The target of assay [7] is GPR68/OGR1 (Homo sapiens (Human), UniProt Q15743). As to the kind of experiment: inhibition of GPR68/OGR1 in CHEM1-OGR1 cells, Fluo-8 calcium response to acidified media. Particulars: acidified media pH 6.4, Fluo-8. It is filed as cell-based. The method, then:
Briefly, the methods were: On the day before the assay 20,000 cells per well of CHEM1-OGR1 cells were plated in 10% DMEM containing 10% FBS and 1% Pen/Strep into a 96 well plate. After 24 hours media was removed and cells were stained with 80 uL Fluo-8 calcium indicator dye according to manufacturer's protocol. After staining cells were treated with 20 uL of 4× concentration of test compounds. Using kinetic imaging in the Lionheart HCS fluorescence intensity was continuously measure at 10 frames per second, for 5 seconds before 100 μL of acidified media was added to the well resulting in a pH of 6.4. A ratio of fluorescence intensities prior to addition and at peak were calculated and averaged. The resulting data were platted and using a 4 parameter logistic regression EC50 for each test compound was determined.

Assay [8] concerns U87glioblastoma cells. Briefly: 3D tumoroid growth over time with GPR68 modulators. It is filed as cell-based. The note with it: 10 μM/20 μM, imaged every 12 hours. The method, then:
A GPR68-positive allosteric modulator, Ogerin, was tested. U87glioblastoma cells were plated in low attachment round bottom 96-well plates and allowed to form tumor spheroids for 3 days (T0). These spheroids were treated with Vehicle (DMSO), 10 μM/20 μM Ogerin or 10 μM/20 μM Ogremorphin (OGM2). The spheroids were placed in the Lionheart™ HCS equipped with environmental control (5% CO2 at 37° C.) and imaged every 12 hours.

The source of these data is patent US12194027B2, “Small molecule inhibitors of GPCR GPR68 and related receptors for treating cancer, glioblastoma, and other indications” (UNIVERSITY OF MARYLAND, BALTIMORE, priority 2019, dated 2025).

In general, IC50 refers to the midpoint of a concentration-inhibition curve. Lower therefore signals greater potency in that assay. Usually EC50 stands for the midpoint of the concentration-response curve.

Chain of Lpa1 (Q92633 whole entry, species assumed): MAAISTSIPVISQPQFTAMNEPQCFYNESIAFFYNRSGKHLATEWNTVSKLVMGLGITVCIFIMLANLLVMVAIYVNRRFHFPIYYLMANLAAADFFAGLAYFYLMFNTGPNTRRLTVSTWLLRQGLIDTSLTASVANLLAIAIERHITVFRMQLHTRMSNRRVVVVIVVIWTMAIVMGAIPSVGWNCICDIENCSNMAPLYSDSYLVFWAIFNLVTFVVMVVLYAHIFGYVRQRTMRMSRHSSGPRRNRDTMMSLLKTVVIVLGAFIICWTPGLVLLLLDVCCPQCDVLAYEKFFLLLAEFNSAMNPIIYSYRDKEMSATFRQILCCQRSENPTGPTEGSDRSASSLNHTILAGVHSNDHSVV
Chain of GPR68/OGR1 (Q15743 whole entry): as the sequence (Q15743 whole entry, looked up) above

As to `CCN(c1nc(N)c(C(=O)NC(=N)N)nc1Cl)C(C)C` [EIPA, reference compound], the “migration in scratch assay” value in assay [1] is “inhibited migration”; in assay [2], “inhibited migration”; in assay [3], “refractory to the inhibition”. `Cc1noc(-c2ccc(CSCCC(=O)O)cc2)c1NC(=O)OC(C)c1ccccc1Cl` (centres unmarked) [LPAi, reference compound]: in assay [4], the midpoint of inhibition, the IC50, lay at 0.25 µM. The zebrafish phenotype entry in assay [5] is recorded as “failed to induce a noticeable phenotype”.

As to `CCc1ccc2c(c1)C1(NN=C(c3cccc4ccccc34)S1)C(=O)N2` (centres unmarked) [OGM1], in assay [6], the IC50 was 0.16 µM. The EC50 in assay [7] stood at 0.17 µM. As to `Cc1ccc2c(c1)C1(NN=C(c3ccccc3)S1)C(=O)N2` (centres unmarked) [OGM3], the results for the IC50 in assay [4] and in assay [6] were 6.4 µM and 0.76 µM, respectively. Taken in the same sequence, the figures for `CCc1ccc2c(c1)C1(NN=C(c3ccccc3O)S1)C(=O)N2` (centres unmarked) [OGM4] were 1.4 µM and 3.4 µM. `CN1C(=O)C2(NN=C(c3ccccc3)S2)c2ccccc21` (centres unmarked) [OGM5] had an IC50 in assay [6] of 0.81 µM.

For the compound `CN1C(=O)C2(NN=C(c3cccc4ccccc34)S2)c2ccccc21` (centres unmarked) [OGM6], in assay [6], the 50% inhibitory concentration (IC50) turned out to be 1.5 µM. As to `O=C1Nc2ccc(Cl)cc2C12NN=C(c1ccccc1)S2` (centres unmarked) [OGM7], the EC50 in assay [7] turned out to be 1.62 µM. The same measure, in the same setting: the result for `O=C1Nc2ccccc2C12NN=C(c1ccc(Cl)cc1)S2` (centres unmarked) [OGM13] reads less than 0.4 µM. On the same count and under the same terms, under `COc1ccc(C2=NNC3(S2)C(=O)Nc2ccc(OC)cc23)cc1` (centres unmarked) [OGM17] stands 0.9 µM; under `Cc1ccc(C2=NNC3(S2)C(=O)Nc2ccc(F)cc23)cc1` (centres unmarked) [OGM18], 0.985 µM. Same read-out and setting: under `O=C1Nc2ccc(Cl)cc2C12NN=C(c1ccc(Cl)cc1)S2` (centres unmarked) [OGM19] stands less than 0.4 µM; under `O=C1Nc2ccc(Cl)cc2C12NN=C(c1ccc(F)cc1)S2` (centres unmarked) [OGM21], 0.796 µM; under `COc1ccc2c(c1)C1(NN=C(c3ccc(Cl)cc3)S1)C(=O)N2` (centres unmarked) [OGM22], less than 0.4 µM.

In the case of `O=C1Nc2ccc(Cl)cc2C12NN=C(c1cccc3ccccc13)S2` (centres unmarked) [OGM23], the EC50 in assay [7] was 5.04 µM. Regarding `COc1ccc2cc(C3=NNC4(S3)C(=O)Nc3ccc(Cl)cc34)ccc2c1` (centres unmarked) [OGM24], the EC50 in assay [7] was found to be 45.9 µM. Still for that read-out and setting: the result for `COc1ccc2cc(C3=NNC4(S3)C(=O)Nc3ccc(F)cc34)ccc2c1` (centres unmarked) [OGM26] reads 0.708 µM; that for `CCc1ccc2c(c1)C1(NN=C(c3ccc4cc(OC)ccc4c3)S1)C(=O)N2` (centres unmarked) [OGM27], greater than 10 µM; that for `CCc1ccc2c(c1)C1(NN=C(c3ccc(OC)cc3)S1)C(=O)N2` (centres unmarked) [OGM28], greater than 10 µM. The same measure, in the same setting: under `COc1ccc(C2=NNC3(S2)C(=O)N(CC=C(C)C)c2ccc(Cl)cc23)cc1` (centres unmarked) [OGM29] stands greater than 10 µM; under `COc1ccc(C2=NNC3(S2)C(=O)N(CC=C(C)C)c2ccccc23)cc1` (centres unmarked) [OGM30], greater than 10 µM. For `CC(C)=CCN1C(=O)C2(NN=C(c3cccc4ccccc34)S2)c2cc(Cl)ccc21` (centres unmarked) [OGM32], the EC50 in assay [7] is greater than 10 µM. Still for that read-out and setting: under `CC(C)=CCN1C(=O)C2(NN=C(c3cccc4ccccc34)S2)c2ccccc21` (centres unmarked) [OGM33] stands greater than 10 µM. Still for that read-out and setting: under `COc1ccc2cc(C3=NNC4(S3)C(=O)N(CC=C(C)C)c3ccccc34)ccc2c1` (centres unmarked) [OGM34] stands greater than 10 µM. Consider `COc1ccc2cc(C3=NNC4(S3)C(=O)N(CC=C(C)C)c3ccc(Cl)cc34)ccc2c1` (centres unmarked) [OGM35], for which, in assay [7], the EC50 is greater than 10 µM. The same measure, in the same setting: the result for `COc1ccc2c(c1)C1(NN=C(c3cccc4cccnc34)S1)C(=O)N2` (centres unmarked) [OGM38] reads 3.69 µM. On the same count and under the same terms, under `COc1ccc2c(c1)C1(NN=C(c3ccc4ncccc4c3)S1)C(=O)N2` (centres unmarked) [OGM43] stands greater than 10 µM. Turning to `COC(=O)c1ccc2c(c1)C1(NN=C(c3cccc4cccnc34)S1)C(=O)N2` (centres unmarked) [OGM44], the EC50 in assay [7] worked out at 2.92 µM. Same read-out and setting: the result for `O=C1Nc2ccc(F)cc2C12NN=C(c1ccc3ncccc3c1)S2` (centres unmarked) [OGM45, 5-fluoro-5′-(quinolin-6-yl)-1,2-dihydro-3′H-spiro[indole-3,2′-[1,3,4]thiadiazol]-2-one] reads 10 µM; that for `COC(=O)c1ccc2c(c1)C1(NN=C(c3cccnc3)S1)C(=O)N2` (centres unmarked) [OGM47], greater than 10 µM. Take `CCc1ccc2c(c1)C1(NN=C(c3cccnc3)S1)C(=O)N2` (centres unmarked) [OGM48]: the EC50 in assay [7] was greater than 10 µM.

As to `CCc1ccc2c(c1)C1(NN=C(c3ccnc(OC)c3)S1)C(=O)N2` (centres unmarked) [OGM49, 5-ethyl-5′-(2-methoxypyridin-4-yl)-1,2-dihydro-3′H-spiro[indole-3,2′-[1,3,4]thiadiazol]-2-one: 2,2,2-trifluoroacetic Acid], the EC50 in assay [7] was 1.09 µM. The same measure, in the same setting: under `COc1ccc2c(c1)C1(NN=C(c3cccnc3)S1)C(=O)N2` (centres unmarked) [OGM50] stands 1.86 µM.

In the case of `COc1ccc2c(c1)NC(=O)C21NN=C(c2ccnc(OC)c2)S1` (centres unmarked) [OGM51], the concentration for a half-maximal effect (EC50) in assay [7] turned out to be 1.44 µM. Same read-out and setting: the result for `NS(=O)(=O)c1ccc2c(c1)C1(NN=C(c3ccccc3)S1)C(=O)N2` (centres unmarked) [OGM52] reads 0.822 µM; that for `NS(=O)(=O)c1ccc2c(c1)C1(NN=C(c3cccnc3)S1)C(=O)N2` (centres unmarked) [OGM53], 0.9 µM; that for `COc1cc(C2=NNC3(S2)C(=O)Nc2ccc(F)cc23)ccn1` (centres unmarked) [OGM57], 0.805 µM. Still for that read-out and setting: the result for `CCc1ccc2c(c1)C1(NN=C(c3cccc4cccnc34)S1)C(=O)N2` (centres unmarked) [OGM58] reads less than 0.4 µM; that for `CCc1ccc2c(c1)C1(NN=C(c3ccncc3)S1)C(=O)N2` (centres unmarked) [OGM60], less than 0.4 µM. `Nc1nc(NCc2ccccc2)nc(-c2ccccc2CO)n1` [Ogerin]: the “growth in 3D tumoroid culture” value in assay [8] was “Stimulates Growth”. For the compound `COc1cc(Br)c(S(=O)(=O)Nc2ccc(Cl)c(O[C@@H]3CCN(C)C3)c2)cc1OC` [UT2i, reference compound], the zebrafish phenotype result in assay [5] is “failed to induce a noticeable phenotype”.
